Laboratory results published in US20040171640A1, “Substituted 1-phenethylpiperidine compounds used as inter alia analgesics” (priority 2001, published 2004).

Experiments:
[1] = test system: phenylquinone-induced writhing in mice; assay: Analgesic testing by phenylquinone-induced writhing test in mice; assay type: in vivo, male NMRI mice; details: Mus musculus, read-out: Antinociceptive action in % relative to control group; for inhibition in vivo at 10 mg/kg: 10 mg/kg intravenous
Experimental: 1.) Analgesic Testing by Writhing Test in Mice
The investigation into analgesic efficacy was performed by phenylquinone-induced writhing in mice (modified after: I. C. Hendershot J. Forsaith, J. Pharmacol. Exp. There. 125, 237-240 (1959)). The corresponding literature description is hereby introduced as a reference and is deemed to be part of the disclosure.
Male NMRI mice weighing from 25 to 30 g were used for this purpose. Groups of 10 animals per substance dose received, 10 minutes after intravenous administration of the compounds tested, 0.3 ml/mouse of a 0.02% aqueous solution of phenylquinone (phenylbenzoquinone, Sigma, Deisenhofen; solution prepared with addition of 5% of ethanol and stored in a water bath at 45° C.) administered intraperitoneally. The animals were placed individually in observation cages. A push button counter was used to record the number of pain-induced stretching movements (writhing reactions=straightening of the torso with stretching of the rear extremities) for 5-20 minutes after phenylquinone administration. The control was provided by animals who received only physiological common salt solution.
The compounds were tested at the standard dosage of 10 mg/kg. Inhibition of the writhing reactions by a substance was calculated according to the following formula: [formula]
1.) Analgesic Testing by Writhing Test in Mice:
The in-depth investigation into analgesic efficacy was performed using phenylquinone-induced writhing in mice, as described above.

[2] = test system: tail flick (pain latency) in mice; assay: Analgesic testing by tail flick test in mice; assay type: in vivo; details: Mus musculus, read-out: Antinociceptive action in % relative to control group; for inhibition in vivo at 1 mg/kg: 1 mg/kg intravenous
Description: 2.) Analgesic Testing by Tail Flick Test in Mice
The mice were each individually put in a test cage and the base of the tail was exposed to the focused heat flux from an electric lamp (tail flick type 50/08/1.bc, Labtec, Dr. Hess). The lamp intensity was so set that the time from switching on of the lamp until sudden flicking away of the tail (pain latency) in untreated mice amounted to 3 to 5 seconds. Prior to administration of the solutions containing the compound according to the invention or the respective comparison solutions, the mice were pre-tested twice within five minutes and the average value of these measurements was calculated as a pre-test average value.
The solutions of the compound according to the invention of the general formula I and the comparison solutions were then administered intravenously. Pain was measured in each case 10, 20, 40 and 60 minutes after intravenous administration. The analgesic action was determined as an increase in pain latency (% of the maximum possible antinociceptive effect) in accordance with the following formula: […]
In this formula, the time T0 is the latency time prior to administration, the time T1 is the latency time after administration of active ingredient combination and the time T2 is the maximum exposure period (12 seconds)
2.) Analgesic Testing by Tail Flick Test in Mice:
The in-depth investigation into analgesic efficacy was performed using the tail flick test in mice, as described above.

Row | Compound | inhibition in vivo at 10 mg/kg [1] [%] | inhibition in vivo at 1 mg/kg [2] [%] | also measured
1 | CC(=O)N(CCC1CCN(CCc2ccccc2)CC1)c1cccc(C(F)(F)F)c1 [Example 21, N-[2-(1-Phenethylpiperidin-4-yl)ethyl]-N-(3-trifluoromethylphenyl)acetamide] | 100 | 34 | –
2 | COc1ccc(NC(=O)CC2CCN(CCc3ccccc3)CC2)cc1 [Example 5, N-(4-Methoxyphenyl)-2-(1-phenethyl-piperidin-4-yl)-acetamide] | 100 | – | –
3 | COc1ccc(N(CCC2CCN(CCc3ccccc3)CC2)C(C)=O)cc1Cl [Example 18, N-(3-Chloro-4-methoxyphenyl)-N-[2-(1-phenethylpiperidin-4-yl)ethyl]acetamide] | 100 | – | –
4 | COc1ccc(NC(=O)CC2CCN(CCc3ccccc3)CC2)cc1Cl [Example 10, N-(3-Chloro-4-methoxyphenyl)-2-(1-phenethylpiperidin-4-yl)acetamide] | 100 | – | –
5 | O=C(C=C1CCN(CCc2ccccc2)CC1)Nc1ccccc1 [Example 3, 2-(1-Phenethyl-piperidine-4-ylidene)-N-phenylacetamide] | 69 | – | –
6 | Fc1cc(Cl)ccc1NCCC1CCN(CCc2ccccc2)CC1 [Example 16, (4-Chloro-2-fluorophenyl)-[2-(1-phenethylpiperidin-4-yl)ethyl]amine] | 80 | – | inhibition in vivo at 10 mg/kg ([2]; 10 mg/kg intravenous): 31%
7 | COc1cccc(NCCC2CCN(CCc3ccccc3)CC2)c1 [Example 14, (3-Methoxyphenyl)-[2-(1-phenethylpiperidin-4-yl)ethyl]amine] | 100 | – | –
8 | CCC(=O)N(CCC1CCN(CCc2ccccc2)CC1)c1ccc(OC)c(Cl)c1 [Example 19, N-(3-Chloro-4-methoxyphenyl)-N-[2-(1-phenethylpiperidin-4-yl)ethyl]propionamide] | 100 | 35 | –
9 | O=C(CC1CCN(CCc2ccccc2)CC1)Nc1ccccc1 [Example 1, 2-(1-Phenethyl-piperidin-4-yl)-N-phenylacetamide] | – | – | inhibition in vivo at 0.1 mg/kg ([2]; 0.1 mg/kg intravenous): 56%
10 | FC(F)(F)c1cccc(NCCC2CCN(CCc3ccccc3)CC2)c1 [Example 13, [2-(1-Phenethyl-piperidin-4-yl)ethyl]-(3-trifluoromethyl-phenyl)amine] | – | 31 | –
11 | O=C(CC1CCN(CCc2ccccc2)CC1)Nc1cccc(C(F)(F)F)c1 [Example 12, 2-(1-Phenethylpiperidin-4-yl)-N-(3-trifluoromethyl-phenyl)acetamide] | – | 21 | –
12 | O=C(CC1CCN(CCc2ccccc2)CC1)Nc1ccc(Cl)cc1F [Example 11, N-(4-Chloro-2-fluorophenyl)-2-(1-phenethylpiperidin-4-yl)acetamide] | 100 | – | –
13 | COc1cccc(NC(=O)CC2CCN(CCc3ccccc3)CC2)c1 [Example 9, N-(3-Methoxyphenyl)-2-(1-phenethyl-piperidin-4-yl)acetamide] | – | – | inhibition in vivo at 1 mg/kg ([1]; 1 mg/kg intravenous): 56%
14 | CC(=O)N(CCC1CCN(CCc2ccccc2)CC1)c1ccccc1 [Example 22, N-[2-(1-Phenethylpiperidin-4-yl)ethyl]-N-phenylacetamide] | – | 24 | –
15 | COc1ccccc1NC(=O)CC1CCN(CCc2ccccc2)CC1 [Example 4, N-(2-Methoxyphenyl)-2-(1-phenethylpiperidin-4-yl)-acetamide] | 100 | – | –
16 | CCC(=O)N(CCC1CCN(CCc2ccccc2)CC1)c1ccccc1 [Example 23, N-[2-(1-Phenethylpiperidin-4-yl)ethyl]-N-phenylpropionamide] | 99 | – | –
17 | COc1ccc(NCCC2CCN(CCc3ccccc3)CC2)cc1 [Example 7, (4-Methoxyphenyl)-[2-(1-phenethylpiperidin-4-yl)ethyl]amine] | 100 | – | –
18 | Oc1ccccc1NCCC1CCN(CCc2ccccc2)CC1 [Example 8, 2-[2-(1-Phenethylpiperidin-4-yl)ethylamino]phenol] | 100 | – | –
19 | Oc1ccc(NCCC2CCN(CCc3ccccc3)CC2)cc1 [Example 15, 4-[2-(1-Phenethylpiperidin-4-yl)ethylamino]phenol] | 100 | – | –
20 | COc1ccc(N(CCC2CCN(CCc3ccccc3)CC2)C(=O)c2ccccc2)cc1Cl [Example 20, N-(3-Chloro-4-methoxyphenyl)-N-[2-(1-phenethylpiperidin-4-yl)ethyl]benzamide] | 88 | 23 | –
21 | Oc1cccc(NCCC2CCN(CCc3ccccc3)CC2)c1 [Example 17, 3-[2-(1-Phenethylpiperidin-4-yl)ethylamino]phenol] | 100 | – | –
22 | O=C(c1ccccc1)N(CCC1CCN(CCc2ccccc2)CC1)c1ccccc1 [Example 24, N-[2-(1-Phenethylpiperidin-4-yl)ethyl]-N-phenylbenzamide] | 100 | 24 | –
23 | O=C(CC1CCN(CCc2ccccc2)CC1)Nc1ccccc1OC(F)(F)F [Example 6, 2-(1-Phenethyl-piperidin-4-yl)-N-(2-trifluoromethoxy-phenyl)acetamide] | 99 | – | –
